US7928128B2, “Use of(R)-(−) -2-[5-(4-fluorophenyl)-3-pyridylmethylaminomethyl]-chromane and its physiologically acceptable salts” (Merck Patent Gesellschaft mit beschrankter Haftung, priority 2000, dated 2011)

How the values were obtained:
[1] = system: rats; assay: Catalepsy induction in rats (extrapyramidal motor side effects); format: in vivo, rat; settings: doses up to 500 fold higher compared to the doses effective in the animal models
Method: (§1) Extrapyramidal motor side effects in e.g. rodents are measured by the ability of a drug to induce catalepsy. Catalepsy is defined as a state where an animal continues to remain in an unnormal (nonphysiological 'uncomfortable') posture for a long time ([…] and S. D. Glick, Neuropharmacology, 1996; 15: 393-394; […] P. Janssen, Life Sci., 1979, […]). For example, if a hindpaw of a rat is placed on an elevated level, e.g. a platform elevated 3 cm above ground level, a normal rat immediately withdraws the hindpaw from the platform to the ground level. A cataleptic rat remains in this unnatural posture even for minutes.

[2] = system: catalepsy induced by conventional antidopaminergic drugs such as haloperidol; assay: Catalepsy induced by conventional antidopaminergic drugs such as haloperidol; format: in vivo; settings: same dose-range as effective in the animal models
Method: as §1

[3] = target: D2 (Homo sapiens, UniProt P14416); assay: D2 antagonism; settings: under increased doses
[4] = system: Parkinsonian cynomolgus monkey; assay: MPTP Parkinsonian cynomolgus monkey chronically treated with I-dopa (adverse effects of anti-Parkinsonian drugs); format: in vivo; settings: MPTP monkeys, long-term I-dopa
Method: Treatment of adverse effects of conventional anti-Parkinsonian drugs as defined above are determined in a modification of the animal model of the Parkinsonian cynomolgus monkey according to P. J. Blanchet et al., Exp. Neurology 1998; 153: 214-222. Monkeys render parkinsonian by repeated injections of 1-methyl-4-phenyl-1,2,3,6-tetrahydropyridine (MPTP). The Parkinsonian monkeys are chronically treated with the standard I-dopa therapy according to P. J. Blanchet et al., Mov. Disord., 1998; 13: 798-802. Longterm treatment with I-dopa induces extrapyramidal motor side effects and psychotic states which are both qualitatively and quantitatively, assessed by the Abnormal Involuntary Movement Scale (P. J. Blanchet et al., Mov. Disord. 1998; 13: 798-802) for different body parts (face, neck, trunk, each limb) and by rating for psychotic states by observing the monkey's attention, reactivity and mobility.

[5] = system: Parkinsonian cynomolgus monkey; assay: MPTP Parkinsonian cynomolgus monkey, Laval University Disability Scale; format: in vivo; settings: MPTP monkeys
From the text: A typical animal model for idiopathic Parkinson's disease is the Parkinsonian cynomolgus monkey according to P. J. Blanchet et al., Exp. Neurology 1998; 153: 214-222. Monkeys render parkinsonian by repeated injections of 1-methyl-4-phenyl-1,2,3,6-tetrahydropyridine (MPTP). Parkinsonian symptoms are qualitatively assessed by the use of the Laval University Disability Scale (B. Gomez-Mancilla et al., 1993; Mov. Disord. 8: 144-150) measuring the following symptoms: posture, mobility, climbing, gait, holding food, vocalizing, grooming, social interaction.

[6] = system: reserpinized rat or mouse; assay: Reserpinized rat or mouse (akinesia); format: in vivo; settings: 24 h after reserpine
Method: A typical animal model is the reserpinized rat or mouse (e.g. […]. Neural Transm.-Park. Dis. Dement. Sect., 1994; 7: 133-142; M. Gossel et al., J. Neural Transm.-Park. Dis. Dement. Sect., 1995; 10: 27-39; N. R. Hughes et al., Mov. Disord., 1998; 13: 228-233). Reserpine is a potent depleter of monoamines and produces nearly complete akinesia in both species. Prominent 24 h after application, the distance traveled and the time active is nearly zero as measured in conventional activity meters.

[7] = system: striatonigral degeneration approach in the rat; assay: Striatonigral degeneration in the rat (6-hydroxydopamine plus quinolinic acid), turning behavior; format: in vivo; settings: automated recorder
From the text: Another more recent animal model is the striatonigral degeneration approach in the rat according to […] et al., J. Neural Transm. Suppl., 1999; 55: 103-113. Rats receive an unilateral injection of 6-hydroxydopamine into the left medial forebrain bundle followed by an injection of quinolinic acid into the ipsilateral striatum inducing nigrostriatal degeneration. The degeneration results in turning behavior to a challenge with dopaminomimetics such as apomorphine or amphetamine. Turning behavior is measured by an automated recorder.

[8] = system: systemic 3-nitropropionic acid (3-NP) model in rats; assay: Systemic 3-nitropropionic acid (3-NP) model in rats, nocturnal activity; format: in vivo, rat
From the text: A typical animal model is the systemic 3-nitropropionic acid (3-NP) model in rats according to C.
After two injections of 3-NP, rats display nocturnal hyperactivity reflecting symptoms of early Huntington's disease, whereas rats treated with four injections of 3-NP display nocturnal akinesia (hypoactivity) reflecting symptoms of late Huntington's disease. Nocturnal activity is automatically measured in conventional activity cages by infrared beams.

[9] = system: mutant dystonic hamster; assay: Mutant dystonic hamster; format: in vivo; settings: scoring system
From the text: A typical animal model is the mutant dystonic hamster according to A. Richter and W. Löscher, Prog. Neurobiol. 1998; 54: 633-677. In this genetically dystonic hamsters, dystonic attacks are provoked by taking the animal from the home cage and placing it on a balance. The dystonic syndrome consists of a sequence of abnormal movements, and the severity of the single symptoms is rated by a scoring system.

[10] = system: neuroleptics-induced muscle rigidity in rats; assay: Neuroleptics-induced muscle rigidity in rats; format: in vivo, rat; settings: resistance to passive flexion and extension of the hind limb
From the text: A typical animal model is neuroleptics-induced muscle rigidity in rats according to S. Wolfarth et al., Arch. Pharmacol. 1992; 345: 209-212. Rats are challenged with the conventional neuroleptic drug haloperidol which enhances muscle tone. Muscle tone is electromechanically measured as the resistance to passive flexion and extension of the hind limb.

[11] = system: neuroleptics sensitized monkey; assay: Neuroleptics sensitized monkey, haloperidol challenge; format: in vivo; settings: given after haloperidol challenge; scoring system
From the text: Another typical animal model is the neuroleptics sensitized monkey according to D. E. Casey, Psychopharmacology, 1996; 124: 134-140. Monkeys treated repeatedly with conventional neuroleptics are highly sensitive to a subsequent challenge dose of neuroleptic drugs. When challenged, the monkeys immediately show extrapyramidal motor side effects such as dystonia, dyskinesias, akathisia, and bradykinesia which are rated by a scoring system. The conventional neuroleptic drug haloperidol is given as a challenge.

[12] = system: Campus Syndrome in the Pietrain pig; assay: Campus Syndrome in the Pietrain pig (tremor); format: in vivo; settings: accelerometric recording
From the text: (§2) Typical genetic models in mutant animals are the Campus Syndrome in the Pietrain pig according to A. Richter et al. (Exp. Neurology, 1995; 134: 205-213) or the Weaver mutant mouse according to J. R. Simon and B. Ghetti (Mol. Neurobiol., 1994; 9: 183-189). In the Campus Syndrome model, these mutant pigs show a high-frequency tremor when standing and during locomotion, but not while lying at rest. Assessment of tremor is made by accelerometric recording. In the Weaver mutant mouse, degenerative cerebellar atrophy is fould in association with tremor, gait instability, and toppling over the sides after a few steps.

[13] = system: Weaver mutant mouse; assay: Weaver mutant mouse (locomotor activity); format: in vivo; settings: activity cages
From the text: as §2

[14] = system: oxotremorine-induced tremor; assay: Oxotremorine-induced tremor; format: in vivo; settings: rating scale
Method: A typical animal model for drug-induced tremors is the oxotremorine-induced tremor (e.g. H. Hallberg and O. Almgren, Acta Physiol. Scand., 1987; 129: 407-13; J. G. Clement and W. R. Dyck, J. Pharmacol. Meth., 1989; 22: 25-36). Oxotremorine induces tremor which is measured by a rating scale. (R)-(−)-2-[5-(4-fluoro-phenyl)-3-pyridyl-methyl-amino-methyl]-chromane or one of its pharmaceutically acceptable salt inhibited oxotremorine-induced tremors.

[15] = system: posthypoxic myoclonus, rats; assay: Posthypoxic myoclonus in rats; format: in vivo, rat; settings: after cardiac arrest for 8 minutes
Method: A typical animal model for myoclonus is myoclonus induced by an acute hypoxic episode according to D. D. Truong et al., Mov. Disord., 1994; 9: 201-206). In this model of posthypoxic myoclonus, rats undergo a cardiac arrest for 8 minutes and are resuscitated thereafter. Myoclonic jerks occur spontaneously but can be provoked by auditory stimulation, too, worsening over the days following cardiac arrest.

[16] = target: T1, 5-HT1A receptor (Homo sapiens, UniProt P08908); settings: in contrast to buspirone
[17] = target: dopamine D3 receptor (Homo sapiens, UniProt P35462)
[18] = target: T1, 5-HT1A receptor; assay: biochemical
[19] = Abnormal Involuntary Movement Scale

T1 sequence (P08908 whole entry): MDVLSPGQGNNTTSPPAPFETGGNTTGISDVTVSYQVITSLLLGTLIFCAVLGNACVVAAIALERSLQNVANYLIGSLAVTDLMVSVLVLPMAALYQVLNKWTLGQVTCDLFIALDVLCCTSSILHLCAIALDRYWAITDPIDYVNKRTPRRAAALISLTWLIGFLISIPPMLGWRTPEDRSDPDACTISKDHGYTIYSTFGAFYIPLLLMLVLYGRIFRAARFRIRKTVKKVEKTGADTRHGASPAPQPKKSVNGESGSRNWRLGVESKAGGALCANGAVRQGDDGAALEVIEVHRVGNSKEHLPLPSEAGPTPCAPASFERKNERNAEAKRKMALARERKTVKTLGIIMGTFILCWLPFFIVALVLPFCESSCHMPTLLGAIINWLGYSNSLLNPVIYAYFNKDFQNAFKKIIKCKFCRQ
D2, sequence (P14416 whole entry): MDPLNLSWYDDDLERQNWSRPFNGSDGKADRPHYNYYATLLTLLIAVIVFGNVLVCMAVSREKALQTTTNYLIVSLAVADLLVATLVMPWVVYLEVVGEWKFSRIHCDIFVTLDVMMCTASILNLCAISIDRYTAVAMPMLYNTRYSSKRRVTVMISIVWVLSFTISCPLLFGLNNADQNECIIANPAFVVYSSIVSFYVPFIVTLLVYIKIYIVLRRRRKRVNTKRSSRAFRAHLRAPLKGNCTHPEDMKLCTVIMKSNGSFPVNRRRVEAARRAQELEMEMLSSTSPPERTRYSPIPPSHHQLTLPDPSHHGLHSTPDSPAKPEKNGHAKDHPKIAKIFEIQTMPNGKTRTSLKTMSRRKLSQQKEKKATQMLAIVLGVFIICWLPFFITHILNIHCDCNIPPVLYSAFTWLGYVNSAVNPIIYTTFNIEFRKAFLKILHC
dopamine D3 receptor, sequence (P35462 whole entry, species assumed): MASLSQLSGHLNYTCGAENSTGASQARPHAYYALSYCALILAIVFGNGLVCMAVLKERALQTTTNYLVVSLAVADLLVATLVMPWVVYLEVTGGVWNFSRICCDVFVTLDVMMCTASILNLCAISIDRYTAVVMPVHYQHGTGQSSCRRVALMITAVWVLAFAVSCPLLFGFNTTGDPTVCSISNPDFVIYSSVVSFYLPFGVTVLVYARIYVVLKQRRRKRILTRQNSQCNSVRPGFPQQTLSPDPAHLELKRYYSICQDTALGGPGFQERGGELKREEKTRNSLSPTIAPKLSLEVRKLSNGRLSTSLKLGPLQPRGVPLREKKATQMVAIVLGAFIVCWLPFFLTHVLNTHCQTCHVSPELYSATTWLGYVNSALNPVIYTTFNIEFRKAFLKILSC

Fc1ccc(-c2cncc(CNC[C@H]3CCc4ccccc4O3)c2)cc1 [(R)-(−)-2-[5-(4-fluorophenyl)-3-pyridylmethylaminomethyl]-chromane]
induction of catalepsy [1]: does not induce any catalepsy
prevention of catalepsy induced by conventional antidopaminergic drugs [2]: able to prevent catalepsy
reversal of already existing catalepsy induced by conventional antidopaminergic drugs such as haloperidol [2]: reverses already existing catalepsy
D2 antagonism [3]: exhibit a D2 antagonism under increased doses
dystonic dyskinesias [4, 19]: reduced
overall choreiform dyskinesias [4, 19]: reduced
psychotic states ([4]; rating of attention, reactivity and mobility): reduced
parkinsonian symptoms (Laval University Disability Scale) [5]: reduced all the parkinsonian symptoms
total activity [5]: increased
akinesia [6]: dose-dependently reduced
distance traveled and time active ([6]; activity meters): restored distance traveled and time active to about the level of normal animals
turning behavior induced by amphetamine [7]: dose-dependently antagonized
turning behavior induced by apomorphine [7]: dose-dependently antagonized
nocturnal akinesia (hypoactivity) ([8]; after four injections of 3-NP (late Huntington's disease)): reduced
nocturnal hyperactivity ([8]; after two injections of 3-NP (early Huntington's disease)): reduced
severity of dystonic symptoms [9]: dose-dependently reduced
muscle tone enhanced by haloperidol [10]: decreased
extrapyramidal motor side effects (dystonia, dyskinesias, akathisia, bradykinesia) [11]: dose-dependently reduced
tremor when standing and during locomotion [12]: reduced disabling tremor
locomotor activity [13]: enhanced
oxotremorine-induced tremors [14]: inhibited
number of auditory-evoked myoclonic jerks [15]: dose-dependently reduced
number of spontaneous myoclonic jerks [15]: dose-dependently reduced
potency as agonist at the 5-HT1A receptor relative to buspirone [16]: 30 fold
affinity to the dopamine D3 receptor [17]: high affinity
IC50 [18]: 1 nM
